Read-outs that look alike come from different tables or passages of the source.
Legend:
[1] = system: wild-type SNU398 hepatocellular carcinoma cells; assay: Anti-proliferative IC50 assay, wild-type SNU398; type: cell-based; details: Homo sapiens
Experimental: (§1) Four hundred cells were seeded in a volume of 100 μL in each well of a 96-well plate. The cells were left in a humidified incubator (37° C., 5% CO2) for 2 hours in order to enable attachment to the surface of the wells prior to compound addition. All compounds were prepared as stocks in DMSO and stored at −80° C. Frozen stocks of compounds were thawed immediately prior to addition to cells. Working solutions of each compound were made in α-MEM+5% FBS (v/v) at 3 times the required final concentration for the top well. The final concentration of DMSO in the α-MEM solution was ensured to not exceed 1% of the total volume. 50 μL of the working solution was added to the top wells (in duplicates) and gently mixed. The solubility of some compounds precluded the working solution in α-MEM to be 3 times the desired top well concentration. […] A 3-fold serial dilution was carried out along the plate starting from the top well. The first column of wells on the plate served as blanks (containing α-MEM+FBS) and the second column served as control wells (containing cells with no compound added). Following compound addition, the plates were incubated for 4 hours in a humidified incubator (37° C., 5% CO2).
(§2) Following the 4 hour compound exposure, the 96-well plates were washed three times by aspirating media with an Immuno Washer (Nunc) and each well replaced with 150 μL of α-MEM+5% (v/v) FBS+1% (v/v) P/S. The plates were left in a humidified incubator (37° C., 5% CO2) for 5 days to enable cell growth. The cells in 96-well plates were fixed 5 days after compound exposure by adding 50 μL of a 40% (w/v) trichloroacetic acid (TCA) solution so as to obtain a final TCA concentration of 10% in each well. The plates were left in the refrigerator (4° C.) for 1 hour and subsequently rinsed 3 times in tap water. Any excess water was left to drain and the cells were stained with 50 μL of 0.4% (w/v) sulforhodamine B (SRB). The plates with the SRB stain were left in the dark for 30 minutes. Excess stain was removed from the wells by rinsing the plates 4 times in water containing 1% (v/v) acetic acid. The stain was solubilised by adding 100 μL of 10 mM unbuffered Tris (pH 10.5) to each well and the plates were left in a shaker in a dark environment at room temperature for at least 1 hour. The absorbance values of the wells were determined by an ELx 808 Absorbance Microplate Reader (Bio-Tek Instruments, Winooski, Vt., USA), with the wavelength of the measurement filter set at 490 nm and a reference filter set at 450 nm. The absorbance of the reference filter was subtracted from the measurement filter to obtain a final absorbance of λ490-450 nm. The absorbance data was analysed and IC50 values determined by the KC4 microplate data analysis software (KC4™ V3.4, Bio-Tek).
(§3) Anti-proliferative IC50 assays were repeated as described above including the addition of 3 μM SN34037, a selective and potent small molecule inhibitor of AKR1C3.
(§4) Materials and methods used are as described for Example 9. […] This is a surprising finding and considerably greater than the approximately 77-fold, 270-fold and 400-fold increase in sensitivity observed for PR-104A, SN33540 and SN34454, respectively. In all cases, this increase in cytotoxicity resulting from expression of AKR1C3 can be substantially reversed by addition of an AKR1C3 inhibitor (SN34037), directly implicating metabolism of the prodrugs by AKR1C3 in the observed increase in cytotoxicity. As an important control, introduction of SN34037 had no anti-proliferative effects in wild-type SNU398 cells treated with compounds of the invention.

[2] = system: wild-type H460 lung cancer cells; assay: Anti-proliferative IC50 assay, wild-type H460; type: cell-based, human; details: for IC50: Homo sapiens
Experimental: as §1, §2, §3
(§5) Materials and methods used are as described for Example 9.

[3] = system: wild-type HCT116 colon cancer cells; assay: Anti-proliferative IC50 assay (SRB), wild-type HCT116; type: cell-based, human
Text: (§6) The cellular cytotoxicity of compounds of the invention resulting from AKR1C3-dependent metabolism of the compounds can readily be observed in anti-proliferative IC50 testing in isogenic cell lines that have been engineered to over-express human AKR1C3, relative to their wild-type counterparts that have been selected for their comparatively low levels of endogenous AKR1C3 expression (by Western blot analysis). The direct role of AKR1C3 in metabolism and cytotoxicity of the compounds is further supported for selected examples by repeat anti-proliferative experiments in the presence of a potent and selective small molecule inhibitor of AKR1C3, SN34037 (Flanagan et al., Bioorganic & Medicinal Chemistry (2014), 22(3), 967-977).
as §1, §2, §3

[4] = system: SNU398 hepatocellular carcinoma cells engineered to over-express AKR1C3; assay: Anti-proliferative IC50 assay, SNU398 over-expressing AKR1C3; type: cell-based, human; details: for IC50: Homo sapiens
Experimental: as §1, §2, §3, §4

[5] = system: HCT116 colon cancer cells engineered to over-express AKR1C3; assay: Anti-proliferative IC50 assay (SRB), HCT116 over-expressing AKR1C3; type: cell-based, human; details: for IC50 Ratio WT:AKR1C3: HCT116-WT vs HCT116-AKR1C3
Text: as §6, §1, §2, §3

[6] = system: wild-type PLC/PRF/5 hepatocellular carcinoma cells; assay: Anti-proliferative IC50 assay, wild-type PLC/PRF/5; type: cell-based, human; details: Homo sapiens, PLC-PRF-5
Experimental: as §1, §2, §3, §5

recombinant human AKR1C3 = biological target: T1, recombinant human AKR1C3 (Homo sapiens, UniProt P42330); assay: Kinetics assay: metabolism of prodrugs by recombinant human AKR1C3; type: biochemical; details: NADPH, pH 7.4, 37° C.
T1 construct: His6 (hexahistidine) (C); made in house; host or cells: E. coli BL21(DE3)
T1 sequence (P42330 1-323): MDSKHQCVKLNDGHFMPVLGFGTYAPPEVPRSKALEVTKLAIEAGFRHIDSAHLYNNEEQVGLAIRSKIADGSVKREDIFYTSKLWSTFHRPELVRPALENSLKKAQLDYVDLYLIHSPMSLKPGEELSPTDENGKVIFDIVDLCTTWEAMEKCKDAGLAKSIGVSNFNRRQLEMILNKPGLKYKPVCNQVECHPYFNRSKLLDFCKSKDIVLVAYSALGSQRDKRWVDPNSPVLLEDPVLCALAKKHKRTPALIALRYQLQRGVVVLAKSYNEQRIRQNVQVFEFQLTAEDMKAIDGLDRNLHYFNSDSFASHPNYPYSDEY
Experimental: E. coli BL21(DE3) cells expressing the pET22b-AKR1C3 construct with a C-terminal hexahistidine (His6) tag and constitutive promoter was generated. Colonies of these transformed E. coli cells were grown in LB agar medium containing 100 μg/mL of ampicillin. A single colony was picked the following day and grown in 400 mL batches of bacterial medium containing ampicillin (100 μg/mL) at 37° C., with continuous shaking at 200 rpm overnight. Bacterial cultures were pelleted by centrifugation (4000×g, 15 minutes) and resuspended in lysis buffer (10 mL/400 mL culture). The cells were disrupted by sonication (Sonicator 3000, Misonix) and centrifuged at 14,000 rpm for 30 minutes (at 4° C.). The cleared lysate was filtered in successive filters containing pore sizes of 1.20 μm, 0.8 μm and 0.2 μm and loaded onto a nickel-agarose affinity chromatography column on an ÄKTA Purifier system. The column was washed with 20 mL of the lysis buffer and the His6-tagged AKR1C3 protein was eluted with lysis buffer supplemented with 500 mM imidazole. The protein was further purified by a liquid chromatography gel filtration column (Superdex 200 HR16/60) using lysis buffer (supplemented with 5% v/v glycerol) and 1 mM DTT (pH 7.0) at a flow rate of 0.3 mL/min. Protein was monitored by absorbance at 280 nm, and purity of the fractions (1 mL) was assessed by SDS-PAGE. Active fractions containing the purified protein were pooled and concentrated by centrifugation (3,000×g, 4° C.) on a Vivaspin concentrator (MWCO 10,000 cutoff; GE Healthcare). The protein containing solution was supplemented with glycerol (to a final concentration of 15%, v/v) and NADP^+ was added to a final concentration of 2 mM.
Kinetic parameters of compounds of the invention were determined in a 96-well plate format. The 100 mM potassium phosphate buffer used in this assay was made with the following reagents to a pH of 7.4: • 0.5 M K2HPO4— 8.2 mL • 0.5 M KH2PO4— 1.8 mL • BSApowder—25 mg • Milli Q water—40 mL
For the assay, 2 μL of varying substrate concentrations were incubated with 94 μL of the potassium phosphate buffer and 2 μL of 5 mM NADPH for 5 minutes in the pre-warmed (37° C.) plate chamber of a Molecular Devices SpectraMax M2 plate reader. Purified AKR1C3 enzyme (2 μL) was added to a final concentration of […] in each well using an Eppendorf electronic multi-channel pipette. Absorbance measurements were recorded immediately upon addition of enzyme over a period of 5 minutes at a wavelength of 400 nm. Absorbance changes for each compound concentration were plotted against time to obtain the rate of absorbance change over the 5 minute period. The rate of absorbance change was then plotted against the compound concentration and non-linear regression analysis and Michaelis-Menten curve fitting performed on GraphPadPrism (version 5.00 for Windows, GraphPad Software, San Diego Calif. USA) in order to determine kinetic parameters of compounds.

[7] = system: wild-type HCT116 colon cancer cells; assay: Anti-proliferative IC50 under oxic and anoxic conditions; type: cell-based, human; details: for IC50: Homo sapiens, HCT-116
Text: PR-104A was initially designed and optimised as a hypoxia-selective cytotoxin (Patterson et al, Clinical Cancer Research, 2007, 13, 3922-3932). In the context of an AKR1C3-activated prodrug, this route of activation is considered off-mechanism and may potentially be undesirable, leading to off-target toxicities in a subject. Preferred compounds of the invention have been determined to be substantially resistant to hypoxia-dependent activation and cytotoxicity in wild-type HCT116 colon cancer cells. HCT116 cells were treated with compounds of the invention under either oxic or anoxic conditions and then their degree of anti-proliferative activity determined.
Selected compounds were evaluated for cytotoxic potential (IC50) under anoxic conditions. The same procedures as described above for Examples 9-11 were carried out in a Bactron anoxic chamber (Sheldon Manufacturing Inc) with internal 37° C. incubators where palladium catalyst scrubbed gas (90% N2, 5% H2, 5% CO2) ensured severe anoxia (<0.001% O2) in the whole chamber. All materials required (including cells) were taken into the chamber through two cycles of vacuum and gassing with 100% N2, followed by a single cycle with 5% CO2 and 5% hydrogen in nitrogen. All experimental materials were placed in the anoxic chamber at least 3 days prior to the day required for the experiment in order to remove any traces of residual O2. The medium used for the 96-well plates in the anoxic chamber consisted of α-MEM+10% (v/v) FBS+1% (v/v) additives (1 M β-D-Glucose and 20 mM 2′-Deoxycytidine).

AKR1C3 mixed MCLs = details: Silva, MSc Thesis; cited from earlier work
[8] = SNU-398, read-out: SNU398-WT +AKR1C3 Inhibitor Anti-proliferative IC50
[9] = SNU-398, read-out: SNU398-WT Anti-proliferative IC50
[10] = NCI-H460, read-out: H460-WT +AKR1C3 Inhibitor Anti-proliferative IC50
[11] = NCI-H460, read-out: H460-WT Anti-proliferative IC50
[12] = Homo sapiens, HCT-116, read-out: HCT116-WT IC50
[13] = SNU-398, read-out: SNU398-AKR1C3 +AKR1C3 Inhibitor Anti-proliferative IC50
[14] = SNU-398, read-out: SNU398-AKR1C3 Anti-proliferative IC50
[15] = Homo sapiens, HCT-116, read-out: HCT116-AKR1C3 IC50
[16] = read-out: PLC/PRF/5-WT Anti-proliferative IC50
[17] = with 3 μM SN34037, read-out: PLC/PRF/5-WT +AKR1C3 Inhibitor Anti-proliferative IC50

| Structure (SMILES) | IC50 [1, 8] [µM] | IC50 [1, 9] [µM] | IC50 [2, 10] [µM] | IC50 [2, 11] [µM] | IC50 [3, 12] [µM] | IC50 [4, 13] [µM] | IC50 [4, 14] [µM] | IC50 Ratio WT:AKR1C3 [5] | IC50 [5, 15] [µM] | IC50 [6, 16] [µM] | IC50 [6, 17] [µM] | other results |
| --- | --- | --- | --- | --- | --- | --- | --- | --- | --- | --- | --- | --- |
| CN1CCN(S(=O)(=O)c2cc([N+](=O)[O-])ccc2N(CCBr)CCBr)CC1 [Compound 563, N,N-bis(2-bromoethyl)-2-((4-methylpiperazin-1-yl)sulfonyl)-4-nitroaniline] | 5.87 | 6.93 | 3.09 | 0.019 | 7.34 | 4.19 | 0.015 | 816 | 0.009 | 4.2 | 21.5 | more cytotoxic in H460 cells than SN34118 [2]: 82 fold; IC50 ([3]; read-out: HCT116-WT + AKR1C3 Inhibitor IC50, with 3 μM SN34037): 5.89 µM; more cytotoxic than SN34118 to AKR1C3-expressing HCT116 cells [5]: 43 fold; IC50 ([5]; read-out: HCT116-AKR1C3 + AKR1C3 Inhibitor IC50, with 3 μM SN34037): 3.26 µM |
| CS(=O)(=O)OCCN(CCBr)c1c(C(=O)N2CCN(c3ccccc3)CC2)cc([N+](=O)[O-])cc1[N+](=O)[O-] [SN35028, reference compound] | – | – | – | – | > 150 | – | – | >36 | 4.15 | – | – | Km (recombinant human AKR1C3): 7.3 µM; kcat (recombinant human AKR1C3): 29.1 s⁻¹ |
| CS(=O)(=O)O.CS(=O)(=O)OCCN(CCOS(C)(=O)=O)c1ccc([N+](=O)[O-])cc1S(=O)(=O)N1CCNCC1 | – | – | – | – | – | – | – | – | – | – | – | melting point: 147 to 149 °C |
| CN1CCN(C(=O)c2cc([N+](=O)[O-])cc([N+](=O)[O-])c2N(CCBr)CCOS(C)(=O)=O)CC1 [SN33540, reference compound] | 248 | 231 | 97.7 | 0.536 | – | 193 | 0.844 | – | – | 83.9 | 248 | IC50 ([7]; anoxic (<0.001% O2), read-out: HCT116-WT Anti-proliferative IC50 Anoxic): 5.1 µM; IC50 ([7]; read-out: HCT116-WT Anti-proliferative IC50 Oxic): 127 µM; Hypoxic Cytotoxicity Ratio (HCR) ([7]; oxic vs anoxic IC50, HCT116-WT): 25; BEE reported in AKR1C3 mixed MCLs (AKR1C3 mixed MCLs): 60%; increase in sensitivity when SNU398 cells express AKR1C3 ([4]; SNU398-WT vs SNU398-AKR1C3): ~270 fold |
